Assay results reported in publication PMC7279487, “Dual Target Ligands with 4-tert-Butylphenoxy Scaffold as Histamine H3 Receptor Antagonists and Monoamine Oxidase B Inhibitors” (International Journal of Molecular Sciences, 2020).

Columns and labels:
[1] = test system: neuroblastoma SH-SY5Y cells; experiment: neuroprotection in H2O2-treated SH-SY5Y cells (MTS); format: cell-based; conditions: 50 µM; H2O2 300 µM; 24 h
Protocol: The used reference cytostatic drug doxorubicin (DX) decreased cell viability <50% under the same conditions at very low concentrations of 0.2 and 0.05 µM. […] Oxidative damage was induced by very high toxic levels of hydrogen peroxide (H2O2; 300 µM), the popular cell model for PD research, in neuroblastoma SH-SY5Y cell line. […] Salsolinol (SAL) was used at a concentration of 50 µM as the reference compound with the proven neuroprotection activity.
SH-SY5Y cells were seeded in microplate at a concentration of 2.5 × 10^4 cells/well in 100 μL culture medium and cultured for 24 h at 37 C and 5% CO2 to reach 70% confluence. […] (R,S)-salsolinol (purity ≥ 99%) was obtained from Cayman Chemical (Ann Arbor, MI, USA). Next, H2O2 was added at final concentration 300 μM and the cells were placed into the incubator. After 24 h of compounds co-incubation with H2O2, the CellTiter 96®AQueous Non-Radioactive Cell Proliferation Assay (MTS) labeling mixture was added to each well, and the microplates were incubated under the same conditions for 5 h. The absorbance was measured using a microplate reader EnSpire (PerkinElmer, Waltham, MA USA) at 490 nm. All measurements were performed in triplicate, and results are shown as mean ± SD.

hH3R = conditions: read-out: hH3R Ki; cited from earlier work
hMAO B [2] = molecular target: T1, hMAO B (Homo sapiens, UniProt P27338); experiment: hMAO B inhibition, fluorometric Amplex Red MAO assay; format: biochemical; conditions: for IC50: mean ± SEM of 2-5 independent experiments, p-tyramine 200 μM
T1 construct: purchased Sigma Aldrich M7441
T1 sequence (P27338 1-520): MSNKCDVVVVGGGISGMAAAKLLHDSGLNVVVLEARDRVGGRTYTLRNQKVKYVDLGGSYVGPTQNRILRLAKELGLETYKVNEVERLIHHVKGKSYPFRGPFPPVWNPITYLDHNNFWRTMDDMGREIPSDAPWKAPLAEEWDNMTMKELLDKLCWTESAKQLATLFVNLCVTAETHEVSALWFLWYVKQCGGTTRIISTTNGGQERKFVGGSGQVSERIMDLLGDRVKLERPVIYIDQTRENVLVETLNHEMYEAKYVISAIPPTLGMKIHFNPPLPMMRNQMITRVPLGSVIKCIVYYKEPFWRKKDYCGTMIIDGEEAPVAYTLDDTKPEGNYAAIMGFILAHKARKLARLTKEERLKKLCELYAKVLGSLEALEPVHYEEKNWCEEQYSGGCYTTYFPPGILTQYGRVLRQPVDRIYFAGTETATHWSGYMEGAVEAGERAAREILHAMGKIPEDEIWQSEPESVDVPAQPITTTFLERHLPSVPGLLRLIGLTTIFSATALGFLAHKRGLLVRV

[3] = molecular target: T2, human histamine H3 receptor (hH3R) (Homo sapiens, UniProt Q9Y5N1); experiment: radioligand displacement binding assay, [3H]Nα-methylhistamine, HEK293 cells stably expressing hH3R; conditions: HEK293 cells stably expressing human H3R, mean (95% CI)
T2 construct: expressed in transfected cells
Protocol: [^3H]N^α-methylhistamine was used as a radioligand.
The radioligand displacement binding assay was carried out in HEK-293 cells stably expressing the recombinant hH3R as described by Kottke et al. with slight modifications. […] Obtained data from at least three experiments (in at least duplicates) were analyzed with GraphPad Prism 6.1 (San Diego, CA, USA) using nonlinear regression (one-site competition on logarithmic scale), and Ki values were transformed from IC50 according to Cheng-Prusoff. Statistical analysis was performed on −log Ki values.

hMAO B [4] = molecular target: T1, hMAO B; experiment: hMAO B reversibility studies; format: biochemical; conditions: inhibitor at IC80; for effect of 30 min preincubation with enzyme on hMAO B inhibition: with vs without preincubation; for type of hMAO B inhibition (reversible or irreversible): without preincubation, compared with safinamide and rasagiline
Protocol: Reversibility of MAO B inhibitors was tested as described previously with slight modification. Two experiments were performed simultaneously. In the first experiment, inhibitors (in concentrations corresponding to their IC80 values) were incubated with the enzyme and p-tyramine (10 μM) for 22 min (measuring fluorescence every two minutes).

human MAO A = molecular target: T3, human MAO A (Homo sapiens, UniProt P21397); experiment: hMAO A inhibition, fluorometric Amplex Red MAO assay; format: biochemical; conditions: for IC50: mean ± SEM, p-tyramine 200 μM; for inhibition at 10 µM: percent of inhibition at 10 μM, mean of two independent experiments, read-out: MAO A (%Inh.)
T3 construct: purchased Sigma Aldrich M7316
T3 sequence (P21397 1-527): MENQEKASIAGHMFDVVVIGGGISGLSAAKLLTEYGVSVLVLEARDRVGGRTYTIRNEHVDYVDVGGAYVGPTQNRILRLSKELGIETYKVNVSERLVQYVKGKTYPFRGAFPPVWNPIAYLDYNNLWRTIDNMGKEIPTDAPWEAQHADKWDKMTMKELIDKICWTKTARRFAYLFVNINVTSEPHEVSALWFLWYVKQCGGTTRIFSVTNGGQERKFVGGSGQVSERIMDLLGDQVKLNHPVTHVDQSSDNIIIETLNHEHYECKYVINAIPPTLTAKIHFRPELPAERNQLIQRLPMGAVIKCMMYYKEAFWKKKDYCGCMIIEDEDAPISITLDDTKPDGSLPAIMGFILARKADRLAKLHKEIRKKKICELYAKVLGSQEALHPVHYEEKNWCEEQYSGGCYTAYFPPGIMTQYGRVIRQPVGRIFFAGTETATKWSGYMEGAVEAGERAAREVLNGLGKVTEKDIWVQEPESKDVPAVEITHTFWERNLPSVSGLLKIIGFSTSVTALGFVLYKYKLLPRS
Protocol: Inhibitory potency of compounds on MAO isoenzymes were carried out by a fluorometric method with a commercial Amplex™ Red Monoamine Oxidase Assay Kit (ThermoFisher Scientific A12214, Waltham, MA, USA) as described previously. For all tests, recombinant human MAO B and MAO A (from Sigma AldrichM7441 and M7316, Darmstadt, Germany) were used. Inhibitors’ activity was measured in the presence of p-tyramine (200 μM).
[…] […] All calculations were made in Microsoft Excel and GraphPadPrism software. All experiments were performed in duplicate, and data are expressed as mean ± SEM of 2–5 independent experiments.

hMAO B [5] = molecular target: T1, hMAO B; experiment: hMAO B kinetic studies (Michaelis-Menten, Lineweaver-Burk); format: biochemical
Protocol: Results from the kinetic experiment were used for determination of Michaelis–Menten curves (Figure 4A,C). […] From Michaelis–Menten curves, Vmax and KM values were fitted (Table 2). For both compounds, Vmax values decreased curvilinearly and KM values increased curvilinearly with the increased inhibitor concentrations.
The mode of the inhibition was tested according to the standard procedure described in Reversibility Studies using different concentrations of the substrate. […] Substrate was used in six concentrations: […], 0.1 mM, 0.5 mM, 1 mM, 1.5 mM, and 2 mM. After the experiment, velocities were calculated and put on the graph (y-axis) against the concentration of the substrate (x-axis). From the Michaelis–Menten plot Vmax, KM, and α values were calculated for different concentrations of the inhibitor. Double-reciprocal plot (Lineweaver–Burk plot) were prepared to display the data.
The α values for different modes of reversible inhibition as well as their diagnostic signature on […]
The α value for compound 9 was calculated by GraphPad Prism software from the nonlinear regression curves using following equation for mixed- […]
v = Vmax*[S] / [S]*(1+ [I]/ αKi) + KM*(1+ [I]/Ki) (1) v – velocity of enzyme reaction. Vmax - maximum velocity (at infinite substrate concentration); Ki – dissociation constant for Enzyme-Inhibitor complex (in the enzymology literature other symbols can be used such as: Ki, Kii , KEI etc.); αKi – dissociation constant for Enzyme-Substrate-Inhibitor complex (in the literature also under the symbols: Ki’, Kis and KES); KM – Michaelis-Menten constant; [I]– concentration of the inhibitor; [S] – concentration of the substrate [Ref S1].
Table S1. Relation between inhibition modality, α value, and diagnostic signature on the double-reciprocal plots (i.e Lineweaver-Burk plot) [S2].
α Inhibition modality Diagnostic signature on […]
α = 1 (inhibitor binds to free enzyme lines converge at the x-axis and enzyme-substrate complex
(inhibitor can bind to free lines converge to the left of the α > 1 enzyme and enzyme-substrate y-axis and above the x-axis complex unequally), inhibitor’s affinity is higher for free enzyme
(inhibitor can bind to free
α < 1 enzyme and enzyme-substrate lines converge to the left of the complex unequally), inhibitor’s y-axis and below the x-axis affinity is higher for the enzyme- […]
α → ∞ (inhibitor and substrate compete lines converge at the y-axis for the same site of binding) […]
α → 0 and α > 0 (inhibitor binds only to the parallel lines

[6] = concentration used in kinetic studies

T2 sequence (Q9Y5N1 whole entry): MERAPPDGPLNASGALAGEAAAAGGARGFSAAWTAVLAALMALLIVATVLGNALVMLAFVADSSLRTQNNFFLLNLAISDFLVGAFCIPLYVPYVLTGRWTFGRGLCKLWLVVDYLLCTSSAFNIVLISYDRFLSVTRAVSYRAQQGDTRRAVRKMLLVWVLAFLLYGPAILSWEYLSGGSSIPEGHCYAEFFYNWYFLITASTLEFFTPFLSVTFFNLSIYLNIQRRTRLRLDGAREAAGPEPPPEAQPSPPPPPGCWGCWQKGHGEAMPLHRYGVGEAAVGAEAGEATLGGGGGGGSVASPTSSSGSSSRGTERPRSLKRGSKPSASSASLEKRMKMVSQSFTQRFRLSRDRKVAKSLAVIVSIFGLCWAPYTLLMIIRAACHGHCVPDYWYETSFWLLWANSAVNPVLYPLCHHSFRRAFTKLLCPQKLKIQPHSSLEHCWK

For `CC1NCCc2cc(O)c(O)cc21` (racemic) [SAL, (R,S)-salsolinol, reference compound], the “cell survival of H2O2-damaged SH-SY5Y cells (neuroprotection)” value [1] was “statistically significant increased cells viability”.

For `C#CCNC1CCc2cc(OCCCN3CCCCC3)ccc21` (stereo not shown) [Compound 1], the Ki (hH3R) is given as 6.7 nM.

For `O=C1/C(=C/c2ccc(OCCCN3CCCCC3)cc2)Cc2cc(OCc3ccc(Br)cc3)ccc21` [Compound 2], the Ki (hH3R) is given as 6.5 nM.

For `CCC(C)(C)c1ccc(OCCCN2CCCC2)cc1` [Compound 3], the Ki (hH3R) is given as 63 nM.

Molecule `CC(C)(C)c1ccc(OCCCN2CCCC2)cc1.O=C(O)C(=O)O` [Compound 5, 1-(3-(4-tert-Butylphenoxy)propyl)pyrrolidine hydrogen oxalate] has an IC50 (hMAO B [2]) of 2.7 ± 0.4 nM, a melting point of 147 to 149 °C and a Ki [3] of 371 nM. For the same molecule, the “effect of 30 min preincubation with enzyme on hMAO B inhibition” value (from here on “effect … on hMAO B inhibition”) (hMAO B [4]) was “did not show differences between experiments with and without the preincubation” and the “type of hMAO B inhibition (reversible or irreversible)” value (hMAO B [4]) was “reversible”.

In the case of `CC(C)(C)c1ccc(OCCCCN2CCCCC2)cc1.O=C(O)C(=O)O` [Compound 6, 1-(4-(4-tert-Butylphenoxy)butyl)piperidine hydrogen oxalate], the IC50 (hMAO B [2]) is reported as 290 ± 7 nM, the melting point is reported as 150 to 152 °C and the Ki [3] is reported as 309 nM. For the same molecule, the IC50 (human MAO A) was over 10000 nM.

In the case of `CC1CCCCN1CCCOc1ccc(C(C)(C)C)cc1.O=C(O)C(=O)O` (stereo not shown) [Compound 9, 1-(3-(4-tert-Butylphenoxy)propyl)-2-methylpiperidine hydrogen oxalate], the IC20 (hMAO B [2]; [6]) is reported as 0.2 nM, the IC80 (hMAO B [2]; [6]) is reported as 40 nM and the IC50 (hMAO B [2]) is reported as 11 ± 1 nM. The melting point was 114 to 116 °C, the “constant α” value (hMAO B [5]; calculated by GraphPad Prism from nonlinear regression, mixed-model inhibition) was 1.6 and the “mode of hMAO B inhibition” value (hMAO B [5]; from Vmax and KM behaviour and Lineweaver-Burk plot) was “mixed mode inhibition”. The “Vmax (RFU/min)” value (hMAO B [5]; inhibitor concentration 0.2 nM) was 1652 RFU/min, the “Vmax (RFU/min)” value (hMAO B [5]; inhibitor concentration 10 nM) was 1544 RFU/min and the “Vmax (RFU/min)” value (hMAO B [5]; inhibitor concentration 40 nM) was 1238 RFU/min. For the same molecule, the Ki [3] was 69 nM, the IC50 (human MAO A) was over 10000 nM and the “effect … on hMAO B inhibition” value (hMAO B [4]) was “did not show differences between experiments with and without the preincubation”. For the same molecule, the “type of hMAO B inhibition (reversible or irreversible)” value (hMAO B [4]) was “reversible”.

Molecule `CC1CCCCN1CCCCOc1ccc(C(C)(C)C)cc1.O=C(O)C(=O)O` (stereo not shown) [Compound 10, 1-(4-(4-tert-Butylphenoxy)butyl)-2-methylpiperidine hydrogen oxalate] has an IC50 (hMAO B [2]) of 475 ± 38 nM, a melting point of 107 to 110 °C and a Ki [3] of 153 nM. For the same molecule, the IC50 (human MAO A) was over 10000 nM.

For `CC1CCCN(CCCOc2ccc(C(C)(C)C)cc2)C1.O=C(O)C(=O)O` (stereo not shown) [Compound 12, 1-(3-(4-tert-Butylphenoxy)propyl)-3-methylpiperidine hydrogen oxalate], the IC50 (hMAO B [2]) was 117 ± 12 nM, the melting point was 141 to 143 °C and the Ki [3] was 98 nM. It also gave an IC50 (human MAO A) of over 10000 nM.

Molecule `CC1(C)CCCN(CCCOc2ccc(C(C)(C)C)cc2)C1.O=C(O)C(=O)O` [Compound 16, 1-(3-(4-tert-Butylphenoxy)propyl)-3,3-dimethylpiperidine hydrogen oxalate] has an IC50 (hMAO B [2]) of 476 ± 38 nM, a melting point of 183 to 186 °C and a Ki [3] of 1620 nM. For the same molecule, the IC50 (human MAO A) was over 10000 nM.

For `CC1(C)CCCN(CCCCCOc2ccc(C(C)(C)C)cc2)C1.O=C(O)C(=O)O` [Compound 18, 1-(5-(4-tert-Butylphenoxy)pentyl)-3,3-dimethylpiperidine hydrogen oxalate], the melting point was 150 to 153 °C, the Ki [3] was 3540 nM and the IC50 (human MAO A) was over 10000 nM. It also gave an inhibition at 10 µM (human MAO A) of 19%.

`CC1(C)CCCN(CCCCCCOc2ccc(C(C)(C)C)cc2)C1.O=C(O)C(=O)O` [Compound 19, 1-(6-(4-tert-Butylphenoxy)hexyl)-3,3-dimethylpiperidine hydrogen oxalate] gave a melting point of 122 to 125 °C, a Ki [3] of 2580 nM and an IC50 (human MAO A) of over 10000 nM. For the same molecule, the inhibition at 10 µM (human MAO A) was 24%.

With `CC(C)(C)c1ccc(OCCCN2CCCCCC2)cc1.O=C(O)C(=O)O` [Compound 28, 1-(3-(4-tert-Butylphenoxy)propyl)-azepane hydrogen oxalate] the IC50 (hMAO B [2]) was 45 ± 4 nM, the melting point was 138 to 140 °C and the Ki [3] was 111 nM. It also gave an IC50 (human MAO A) of over 10000 nM.

Work on `CC(C)(C)c1ccc(OCCCCN2CCCCCC2)cc1.O=C(O)C(=O)O` [Compound 29, 1-(4-(4-tert-Butylphenoxy)butyl)-azepane hydrogen oxalate] yielded a melting point of 149 to 151 °C, a Ki [3] of 299 nM and an IC50 (human MAO A) of over 10000 nM. For the same molecule, the inhibition at 10 µM (human MAO A) was 23%.

With `C[C@H](NCc1ccc(OCc2cccc(F)c2)cc1)C(N)=O` [safinamide, reference compound] the “effect … on hMAO B inhibition” value (hMAO B [4]) was “did not show differences between experiments with and without the preincubation”.
